In patent publication US20250051307A1, “SALT OF 3,4-DIHYDROISOQUINOLINE COMPOUND AND USE THEREOF” (CSPC ZHONGQI PHARMACEUTICAL TECHNOLOGY(SHIJIAZHUANG) CO., …, priority 2021, published 2025):
Where two headings read alike, the source gives them in different places. Marks after values point to notes of the source that are not given here. Each block holds one compound with its values, some of them ahead of it.

How the values were obtained:
[1] = test system: human acute monocytic leukemia cell line MV4-11; test: MV4-11 MTT cell growth inhibition; type: cell-based
From the text: The complete medium required for the culture of human acute monocytic leukemia cell line MV4-11 (Shanghai Cell Bank) for experiment was IMDM (CatNO. 12440-053, gibco) supplemented with 10% FBS (Cat NO. SA311.02, cellmax). […] The experiment reagents included dimethyl sulfoxide (Tianjin Kemiou Chemical Reagent Co., Ltd.) and MTT (THIAZOLYL BLUE TETRAZOLIUM BROMIDE, CAS. NO. 298-93-1, VWR). The control compound GSK3326595 for experiment was homemade or commercially available. The test compound was encapsulated and stored at 4° C.
Dimethyl sulfoxide was used as a vehicle to fully dissolve the test compound, thereby formulating a stock solution at a concentration of 5×10^−2 mol/L. The stock solution was stored at −20° C. With the complete medium as diluent, the test compound was subjected to gradient dilution to afford dilutions at different concentrations for standby application. In a 96-well culture plate, the suspension of the human acute monocytic leukemia cell line MV4-11 in the complete medium, at a volume of 100 μL/well (2×10^3 cells/well), was added. […] The OD value at 550 nm was measured with a microplate reader. […] The cell growth inhibition rate was calculated according to the following equation: […]
According to the inhibition rate at each concentration, the half maximal inhibitory concentration IC50 value was calculated using the SPSS software.

[2] = Pharmacokinetic experiment in SD rats; type: in vivo; conditions: 25 mg/kg by gavage; for Cmax / Tmax / AUC(0-t): male, Sprague-Dawley (SD), rat, po, plasma; for AUC(0-t): read-out: AUC0-24h
Protocol: SD rats (male, 180 g to 200 g, Beijing Vital River Laboratory Animal Technology Co., Ltd.) were administered with the test compounds (solvent: 2% DMSO+98% (0.2 g/mL) hydroxypropyl-β-cyclodextrin, dosing volume: 5 mL/kg) by gavage. Blood was collected from the orbits of the rats at different points in time (0.25, 0.5, 1, 2, 4, 8, 24 h) after administration. The collected whole blood was anticoagulated with heparin sodium and centrifuged at 3000 g to obtain rat plasma samples, and methanol was added thereto to precipitate proteins. The drug concentration in rat plasma after administration was determined by HPLC-MS/MS method. A drug concentration-time curve was plotted and the pharmacokinetic parameters were calculated. Pharmacokinetic behaviors of the compounds after administration in rats were described by means of the parameter estimation of non-compartmental model based on statistical moment theory.

[3] = test system: MV4-11 subcutaneous xenograft; test: MV4-11 subcutaneous xenograft model, in vivo efficacy; set-up: species or system NOD-SCID mice; conditions: for Body Weight Change (%): 11 consecutive days; for d9 Tumor Volume (mm^3): 9th day after administration; for d0 Tumor Volume (mm^3): before grouping for administration, 100 mg/kg group; for RTV (d9): d9 tumor volume/d0 tumor volume; for Tumor Weight: end of experiment; for Tumor Weight / Tumor weight inhibition rate (%): 11 days; for Tumor weight inhibition rate (%): vs vehicle group
Protocol: Experimental female NOD-SCID mice, SPF grade, 4 to 5 weeks, were purchased from Beijing Vital River Laboratory Animal Technology Co., Ltd. The mice were intraperitoneally injected with cyclophosphamide at a dose of 100 mg/kg one day before cell inoculation. The human acute monocytic leukemia cell line MV4-11 (1×10^7/0.1 ml/mouse) was subcutaneously inoculated into forelimb axilla of mice to establish a subcutaneous xenograft model. When the tumor volumes reached about 110 mm^3 (10 days after inoculation), the mice were equally grouped according to the tumor volume, with 5 mice in each group, i.e., vehicle group (2% DMSO+98% (0.2 g/mL) hydroxypropyl-β-cyclodextrin) and test drug groups. For the test drug groups, the dose of administration was 100 mg/kg, the dosing volume was 10 mL/kg, the dosing frequency was BID, the tumor diameters were measured twice per week, and the data was recorded. The mice were administered for 11 consecutive days. When the experiment ended, the tumors were dissected and weighed.
The body weight growth rate, the tumor volume, and the tumor weight inhibition rate were calculated according to the following equations: body weight growth rate=X(Wi-W0)/XW0×100%, where Wi denoted the body weight of a mouse in each test drug group on the n^th day, and W0 denoted the body weight of a mouse in each test drug group at the beginning of administration; tumor volume (V)=½× a× b^2, where a and b denoted the long diameter and the short diameter of a tumor, respectively; d0 denoted before grouping for administration, d9 denoted the 9th day after administration, relative tumor volume (RTV)=d9 tumor volume/d0 tumor volume; tumor weight inhibition rate=(tumor weightvehicle group−tumor weighttest drug group)/tumor weightvehicle group×100%.

[4] = Solid stability of crystal forms at high temperature (XRPD); type: physicochemical; conditions: 60° C., sealed, 7 days
From the text: (§1) The samples were subjected to X-ray powder diffraction to investigate the stability of the samples under different conditions, and the results are shown in the following table.

[5] = Solubility determination in water and biological media; type: physicochemical; conditions: for solubility at 24 h: thermodynamic from solid, 37° C., solubility is in free state; for Solubility compared with the free base sample: water and FassIF media, vs Preparation Example 1
From the text: • FaSSIF: human fasted state simulated intestinal fluid; FeSSIF: human fed state simulated intestinal fluid; SGF: human fasted state simulated gastric fluid.

[6] = Solid stability of crystal forms under different humidity conditions (XRPD); type: physicochemical; conditions: 7 days
From the text: as §1

PRMT5 = PRMT5 (Homo sapiens (Human), UniProt O14744); test: Radiometric assay for PRMT5 based on FlashPlate technology; type: biochemical
Chain of PRMT5 (O14744 whole entry): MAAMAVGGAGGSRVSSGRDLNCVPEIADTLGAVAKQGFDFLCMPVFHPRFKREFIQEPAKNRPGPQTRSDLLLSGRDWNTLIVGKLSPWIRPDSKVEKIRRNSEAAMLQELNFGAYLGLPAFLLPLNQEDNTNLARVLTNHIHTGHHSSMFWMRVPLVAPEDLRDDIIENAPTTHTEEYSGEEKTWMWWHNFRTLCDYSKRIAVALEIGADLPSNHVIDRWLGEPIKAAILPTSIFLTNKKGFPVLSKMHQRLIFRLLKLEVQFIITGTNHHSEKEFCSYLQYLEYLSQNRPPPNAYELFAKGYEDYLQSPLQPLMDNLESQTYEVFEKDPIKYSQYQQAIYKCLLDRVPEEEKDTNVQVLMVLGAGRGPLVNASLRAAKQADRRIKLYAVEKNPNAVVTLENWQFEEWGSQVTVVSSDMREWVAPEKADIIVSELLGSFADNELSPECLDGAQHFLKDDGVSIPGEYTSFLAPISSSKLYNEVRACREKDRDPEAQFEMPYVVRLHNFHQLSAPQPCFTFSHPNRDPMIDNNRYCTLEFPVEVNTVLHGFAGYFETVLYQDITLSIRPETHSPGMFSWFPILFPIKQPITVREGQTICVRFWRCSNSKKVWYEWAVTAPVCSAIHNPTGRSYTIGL
Chain of PRMT5 (Q9BQA1 whole entry partner): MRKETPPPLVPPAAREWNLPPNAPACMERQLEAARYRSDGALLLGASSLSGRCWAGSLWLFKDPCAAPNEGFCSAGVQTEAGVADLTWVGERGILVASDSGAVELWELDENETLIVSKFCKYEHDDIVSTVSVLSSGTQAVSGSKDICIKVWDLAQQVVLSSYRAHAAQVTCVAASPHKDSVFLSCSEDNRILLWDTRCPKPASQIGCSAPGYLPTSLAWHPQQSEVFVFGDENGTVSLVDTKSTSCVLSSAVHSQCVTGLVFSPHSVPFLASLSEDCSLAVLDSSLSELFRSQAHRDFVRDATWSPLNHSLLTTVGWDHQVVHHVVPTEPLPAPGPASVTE
Protocol: The radiometric assay for PRMT5 based on FlashPlate technology was adopted to determine IC50 of the test compound.
After dissolved in dimethyl sulfoxide respectively, the test compounds were added into an Echo Qualified 384-well plate and diluted to the desired concentrations. The diluted test compounds were transferred from the Echo Qualified 384-well plate to a 384-well reaction plate using an Echo 550 instrument, and dimethyl sulfoxide was transferred into both the control and blank wells. […] At a volume of 15 μL/well, the 1.67× enzyme solution was added into wells of the 384-well reaction plate. […] The reaction plate was centrifuged at 1000 rpm for 1 min, and incubated at room temperature for 15 min. […] From each well of the test plate, 25 μL was measured and transferred to Flashplate and left at room temperature for 1 h. Thereafter, the Flashplate was washed with 0.1% Tween-20 solution three times. Readings were taken with MicroBeta 2. The data was converted into the inhibition rate data. Inhibition rate=(conversion ratecontrol well−conversion ratecompound well)/(conversion ratecontrol well−conversion rateblank well)×100%.

[7] = Long-term (three months) stability of Crystal Form I; type: physicochemical
[8] = FaSSIF (human fasted state simulated intestinal fluid), FassIF, read-out: 24 h solubility (mg/mL) FassIF
[9] = SGF (human fasted state simulated gastric fluid), simulated gastric fluid, SGF, read-out: 24 h solubility (mg/mL) SGF
[10] = water, read-out: 24 h solubility (mg/mL) Water
[11] = vs positive control drug GSK3326595

Compound: CC(=O)N1CCC(Nc2cc(C(=O)NC[C@H](O)CN3CCc4ccccc4C3)ncn2)CC1 [GSK3326595, reference compound]
IC50 ([1]; Homo sapiens, MV4-11, 144 h, MTT on Day 6): 6.68 nM | Cmax [2]: 60.3 ng/mL | Tmax [2]: 2.67 h | AUC(0-t) [2]: 589 ng·h/mL | Body Weight Change (%) ([3]; 100 mg/kg BID): −6.8% | d9 Tumor Volume (mm^3) ([3]; 100 mg/kg BID): 135 ± 43** mm^3 | d0 Tumor Volume (mm^3) [3]: 165.2 ± 23.1 mm^3 | RTV (d9) ([3]; 100 mg/kg BID): 0.8 ± 0.2 | Tumor Weight ([3]; 100 mg/kg BID): 0.1124 ± 0.0764 g | Tumor weight inhibition rate (%) ([3]; 100 mg/kg BID): 84.5%

Compound: CON=C(C)C(=O)N1CCC(Nc2cc(C(=O)NC[C@H](O)CN3CCc4ccccc4C3)ncn2)CC1.O=C(O)C[C@H](O)C(=O)O [Example 5]
Crystal form after storage (XRPD) [4]: Crystal Form V

Compound: CON=C(C)C(=O)N1CCC(Nc2cc(C(=O)NC[C@H](O)CN3CCc4ccccc4C3)ncn2)CC1.O=C(O)C(=O)O [Example 11]
solubility at 24 h [5, 8]: > 9.1 mg/mL | solubility at 24 h [5, 9]: > 9.2 mg/mL | solubility at 24 h [5, 10]: > 9.1 mg/mL | Solubility compared with the free base sample [5]: significantly higher

Compound: CON=C(C)C(=O)N1CCC(Nc2cc(C(=O)NC[C@H](O)CN3CCc4ccccc4C3)ncn2)CC1.O=C(O)C[C@H](O)C(=O)O [Example 3]
Crystal form after storage (XRPD) ([6]; 23° C./33% RH): Crystal Form III | Crystal form after storage (XRPD) ([6]; 25° C./60% RH): Crystal Form III | Crystal form under different humidity conditions (conclusion) [6]: unchanged

Compound: CON=C(C)C(=O)N1CCC(Nc2cc(C(=O)NC[C@H](O)CN3CCc4ccccc4C3)ncn2)CC1 [Compound of formula (A)]
IC50 (PRMT5; PRMT5 5 nM, [3H]-SAM, 25° C. 60 min, read-out: Enzymology (IC50)): 31 nM | Inhibitory activity at enzyme level compared with GSK3326595 (PRMT5; [11]): better inhibitory activities | Inhibitory activity at cell level compared with GSK3326595 [1, 11]: better inhibitory activities | Absorption in rats compared with GSK3326595 [2]: better absorbed | Cmax [2]: 2370 ng/mL | Tmax [2]: 0.333 h | AUC(0-t) [2]: 4410 ng·h/mL | solubility at 24 h [5, 8]: 1.7 mg/mL | solubility at 24 h [5, 9]: > 4.4 mg/mL | solubility at 24 h [5, 10]: 0.39 mg/mL | Tumor-inhibitory activity in MV4-11 xenografts model ([3]; 100 mg/kg BID): significant tumor-inhibitory activity | Body Weight Change (%) ([3]; 100 mg/kg BID): −6.1% | d9 Tumor Volume (mm^3) ([3]; 100 mg/kg BID): 55.7 ± 19.7 ***## mm^3 | d0 Tumor Volume (mm^3) [3]: 165.3 ± 27.5 mm^3 | RTV (d9) ([3]; 100 mg/kg BID): 0.4 ± 0.1 | Tumor Weight ([3]; 100 mg/kg BID): 0.0648 ± 0.0267 g | Tumor weight inhibition rate (%) ([3]; 100 mg/kg BID): 91.1%

Compound: CON=C(C)C(=O)N1CCC(Nc2cc(C(=O)NC[C@H](O)CN3CCc4ccccc4C3)ncn2)CC1.O=C(O)C[C@H](O)C(=O)O [Example 1]
Crystal Form after storage ([7]; 3 months, long-term stability): Crystal Form I | Purity after storage ([7]; 3 months, long-term stability): 99.32% | Initial purity ([7]; before long-term storage): 99.43%

Further lines, results first:

solubility at 24 h [5, 8]: > 4.7 mg/mL | solubility at 24 h [5, 9]: > 4.8 mg/mL | solubility at 24 h [5, 10]: > 4.9 mg/mL | Solubility compared with the free base sample [5]: significantly higher
Compound: CON=C(C)C(=O)N1CCC(Nc2cc(C(=O)NC[C@H](O)CN3CCc4ccccc4C3)ncn2)CC1.O=C(O)C[C@H](O)C(=O)O [Example 7]

Crystal form after storage (XRPD) [4]: Crystal Form II | Crystal form after storage (XRPD) ([6]; 23° C./33% RH): Crystal Form II | Crystal form after storage (XRPD) ([6]; 25° C./60% RH): Crystal Form II | Crystal form under different humidity conditions (conclusion) [6]: unchanged
Compound: CON=C(C)C(=O)N1CCC(Nc2cc(C(=O)NC[C@H](O)CN3CCc4ccccc4C3)ncn2)CC1.O=C(O)C[C@H](O)C(=O)O [Example 2]

Crystal form after storage (XRPD) ([6]; 23° C./33% RH): Crystal Form IV | Crystal form after storage (XRPD) ([6]; 25° C./60% RH): Crystal Form IV | Crystal form under different humidity conditions (conclusion) [6]: unchanged
Compound: CON=C(C)C(=O)N1CCC(Nc2cc(C(=O)NC[C@H](O)CN3CCc4ccccc4C3)ncn2)CC1.O=C(O)C[C@H](O)C(=O)O [Example 4]
